{"source": "patent US7781161B2", "about": "“Genomic screen for epigenetically silenced tumor suppressor genes” (The Johns Hopkins University School of Medicine, priority 2002, dated 2010)", "type_in_all_cases": "cell-based, human", "key": {"[1]": {"test_system": "HNSCC #011 cell line", "assay": "Microarray screen for reactivated genes in HNSCC cells", "conditions": "10 μM 5Aza-dC", "method": "(§1) Cells were split to low density (5×10^5 per T-25 flask) 12 to 24 hr before treatment, then treated for 3, 4, or 5 days with 1 μM or 5 μM 5Aza-dC (Sigma) from 100-mM 50% acetic acid dissolved stock or were mock-treated with the same volume of phosphate buffered saline (PBS) including the same acetic acid. Following an initial incubation (48 hr) of 5Aza-dC, a final concentration of 300 nM TSA (Sigma) was added to the media from a 5 mM ethanol dissolved stock, or cells were mock-treated with an identical volume of ethanol.\n(§2) Oligonucleotide microarray analysis was performed using the GeneChip™ Human Genome U95Av2 Array (Affymetrix), which contains 12,599 genes, according to the manufacturer's instruction. […] RNA was isolated using TRIZOL reagent (Invitrogen Corp.) and reverse-transcribed total RNA (8 μg) with M-MLV (Invitrogen Corp.); one one-hundredth of the cDNA product was used as a template for PCR. RT-PCR was performed at 24 to 30 cycles: 95° C. for 1 min, 54 or 56° C. for 1 min, and 72° C. for 1 min.\nHNSCC cells were incubated with 10 μM 5Aza-dC or with 0.1 μM 5Aza-dC and 300 nM TSA and screened as described in Example 1."}, "[2]": {"test_system": "3 ESCC cell lines", "assay": "Microarray screen, pooled over the 3 ESCC cell lines", "method": "as §1, §2\nTreatment of cells with the demethylating agent 5aza-dC (1 μM or 5 μM) for 3 to 5 days, and with or without the histone deacetylase inhibitor, TSA (300 nM; last 24 hours), was used to reactivate genes epigenetically silenced in 3 ESCC cell lines. […]"}, "[3]": {"test_system": "KYSE30", "assay": "Oligonucleotide microarray: genes up-regulated after 5Aza-dC ± TSA treatment", "conditions": "at least 3.0 fold increase", "method": "as §1, §2\n(§3) Treatment of cells with the demethylating agent 5aza-dC (1 μM or 5 μM) for 3 to 5 days, and with or without the histone deacetylase inhibitor, TSA (300 nM; last 24 hours), was used to reactivate genes epigenetically silenced in 3 ESCC cell lines. […] The number of candidate genes was further diminished by comparing expression patterns (see world wide web, at URL “cgap.nci.nih.gov”) in normal esophagus and carcinoma tissue samples (eliminating those genes not expressed in normal tissue), and excluding unknown genes."}, "[4]": {"test_system": "KYSE410", "assay": "Oligonucleotide microarray: genes up-regulated after 5Aza-dC ± TSA treatment", "conditions": "at least 3.0 fold increase", "method": "as §1, §2, §3"}, "[5]": {"test_system": "KYSE520", "assay": "Oligonucleotide microarray: genes up-regulated after 5Aza-dC ± TSA treatment", "conditions": "at least 3.0 fold increase", "method": "as §1, §2, §3"}}, "data": [{"smiles": "Nc1ncn([C@H]2C[C@H](O)[C@@H](CO)O2)c(=O)n1", "note": "[5Aza-dC, 5-aza-2′-deoxycytidine]", "values": [{"measurement": "Reactivation of epigenetically silenced genes", "setting": "[1]; HNSCC cells", "value": "Reactivation of epigenetically silenced genes was observed"}, {"measurement": "Fold increase in expression: H.sapiens p27 mRNA (X67325)", "setting": "[1]; probe 425_at, HNSCC #011", "value": 5.8, "unit": "fold"}, {"measurement": "Fold increase in expression: tumor necrosis factor alpha inducible protein", "setting": "[1]; probe 595_at, HNSCC #011", "value": 3.648, "unit": "fold"}, {"measurement": "Fold increase in expression: von Hippel-Lindau disease tumor suppressor mRNA", "setting": "[1]; probe 1668_s_a, HNSCC #011", "value": 2.4375, "unit": "fold"}, {"measurement": "Fold increase in expression: insulin-like growth factor binding protein 6 (IGFBP6) gene (M62402)", "setting": "[1]; probe 1736_at, HNSCC #011", "value": 2.2, "unit": "fold"}, {"measurement": "Fold increase in expression: Human Rad mRNA (L24564)", "setting": "[1]; probe 1776_at, HNSCC #011", "value": 10.9, "unit": "fold"}, {"measurement": "Fold increase in expression: mRNA for TGF-betaIIR alpha", "setting": "[1]; probe 1814_at, HNSCC #011", "value": 3.3, "unit": "fold"}, {"measurement": "Fold increase in expression: Human Bc12, p53 binding protein (U58334)", "setting": "[1]; probe 1860_at, HNSCC #011", "value": 2.3, "unit": "fold"}, {"measurement": "Fold increase in expression: Human R-ras gene (M14949)", "setting": "[1]; probe 1879_at, HNSCC #011", "value": 3.7, "unit": "fold"}, {"measurement": "Fold increase in expression: Human excision repair protein (ERCC1) mRNA", "setting": "[1]; probe 1902_at, HNSCC #011", "value": 5.562, "unit": "fold"}, {"measurement": "Fold increase in expression: Human wild-type p53 activated fragment-1 (WAF1) mRNA (U03106)", "setting": "[1]; probe 2031_s_a, HNSCC #011", "value": 2.9, "unit": "fold"}, {"measurement": "Fold increase in expression: breast cancer putative transcription factor (ZABC1) gene (AF041259)", "setting": "[1]; probe 32034_at, HNSCC #011", "value": 3.1, "unit": "fold"}, {"measurement": "Fold increase in expression: DR4 homolog; TRAIL receptor 2", "setting": "[1]; probe 34892_at, HNSCC #011", "value": 2.4292, "unit": "fold"}, {"measurement": "Fold increase in expression: DOC-1 related protein", "setting": "[1]; probe 35151_at, HNSCC #011", "value": 2.4474, "unit": "fold"}, {"measurement": "Fold increase in expression: Mothers against dpp (Mad) gene (DPC4 gene), U10328", "setting": "[1]; probe 36953_at, HNSCC #011", "value": 3.5132, "unit": "fold"}, {"measurement": "Fold increase in expression: TGFb inducible early protein and early growth response protein alpha genes (AF050110)", "setting": "[1]; probe 38374_at, HNSCC #011", "value": 2.3, "unit": "fold"}, {"measurement": "Fold increase in expression: insulin-like growth factor binding protein 4 (IGFBP4) gene (U20982)", "setting": "[1]; probe 39781_at, HNSCC #011", "value": 3.7, "unit": "fold"}, {"measurement": "Share of all up-regulated genes included in the treatment group", "setting": "[2]; 5 μM 5Aza-dC treatment group, 3 ESCC cell lines", "value": "> 80", "unit": "%"}, {"measurement": "STAT3 expression after treatment", "setting": "[2]; after 5Aza-dC treatments", "value": "did not change"}, {"measurement": "Genes upregulated by microarray analysis after treatments", "setting": "[3]; 1 μM 5Aza-dC", "value": 46, "unit": "genes"}, {"measurement": "Genes upregulated by microarray analysis after treatments", "setting": "[3]; 5 μM 5Aza-dC", "value": 242, "unit": "genes"}, {"measurement": "Genes upregulated by microarray analysis after treatments", "setting": "[4]; 1 μM 5Aza-dC", "value": 15, "unit": "genes"}, {"measurement": "Genes upregulated by microarray analysis after treatments", "setting": "[4]; 5 μM 5Aza-dC", "value": 334, "unit": "genes"}, {"measurement": "Genes upregulated by microarray analysis after treatments", "setting": "[5]; 1 μM 5Aza-dC", "value": 5, "unit": "genes"}, {"measurement": "Genes upregulated by microarray analysis after treatments", "setting": "[5]; 5 μM 5Aza-dC", "value": 149, "unit": "genes"}]}]}
